Measured values as given in patent US12312343B2, “Rotomeric isomers of 4-alkyl-5-heteroaryl-3H-1,2-dithiole-3-thiones” (ST IP HOLDING AG, priority 2018, dated 2025).

Experiments:
[1] = system: ALOX12; experiment: Human oxidative stress RT2 Profiler PCR array in HGEPp cells: ALOX12; assay type: cell-based; conditions: 100 μg/ml, 24 h, RT-PCR ΔΔCt
Protocol: (§1) RT-PCR was performed on an iCycler.

[2] = system: UCP2; experiment: Human oxidative stress RT2 Profiler PCR array in HGEPp cells: UCP2; assay type: cell-based; conditions: 100 μg/ml, 24 h, RT-PCR ΔΔCt
Protocol: as §1

[3] = system: HGEPp cells; conditions: 100 μg/mL pretreatment; taken from PCT/IB2017/001312; cited from earlier work
[4] = system: GPX1; experiment: Human oxidative stress RT2 Profiler PCR array in HGEPp cells: GPX1; assay type: cell-based; conditions: 100 μg/ml, 24 h, RT-PCR ΔΔCt
Protocol: as §1

[5] = system: PTGS1; experiment: Human oxidative stress RT2 Profiler PCR array in HGEPp cells: PTGS1; assay type: cell-based; conditions: 100 μg/ml, 24 h, RT-PCR ΔΔCt
Protocol: as §1

[6] = system: GTF2i; experiment: Human oxidative stress RT2 Profiler PCR array in HGEPp cells: GTF2i; assay type: cell-based; conditions: 100 μg/ml, 24 h, RT-PCR ΔΔCt
Protocol: as §1

[7] = system: NQO1; experiment: Human oxidative stress RT2 Profiler PCR array in HGEPp cells: NQO1; assay type: cell-based; conditions: 100 μg/ml, 24 h, RT-PCR ΔΔCt
Protocol: as §1

[8] = system: GCLM; experiment: Human oxidative stress RT2 Profiler PCR array in HGEPp cells: GCLM; assay type: cell-based; conditions: 100 μg/ml, 24 h, RT-PCR ΔΔCt
Protocol: as §1

[9] = system: GCLC; experiment: Human oxidative stress RT2 Profiler PCR array in HGEPp cells: GCLC; assay type: cell-based; conditions: 100 μg/ml, 24 h, RT-PCR ΔΔCt
Protocol: as §1

[10] = system: SOD1; experiment: Human oxidative stress RT2 Profiler PCR array in HGEPp cells: SOD1; assay type: cell-based; conditions: 100 μg/ml, 24 h, RT-PCR ΔΔCt
Protocol: as §1

[11] = system: GSTP1; experiment: Human oxidative stress RT2 Profiler PCR array in HGEPp cells: GSTP1; assay type: cell-based; conditions: 100 μg/ml, 24 h, RT-PCR ΔΔCt
Protocol: as §1

[12] = system: MPO; experiment: Human oxidative stress RT2 Profiler PCR array in HGEPp cells: MPO; conditions: 100 μg/ml, 24 h, RT-PCR ΔΔCt
Protocol: (§2) Pooled primary HGEPp cells were propagated in CnT-Prime epithelial culture medium provided by CellnTec on 100 mm petri dishes coated with 30 mg/ml Type I rat tail collagen (BD Biosciences) diluted in Dulbecco's phosphate-buffered saline (DPBS). HGEPp cells were grown in 12×60 mm Nunc™ Cell Culture dishes at a 2.5×10^4 cells/cm2 density concentration.
(§3) All dosing solutions contained 0.3% of DMSO which is well below the maximum tolerated DMSO percent of 0.8% for HGEPp cells.
(§4) The cDNA from above was mixed with the RT2 SYBR Green fluor Mastermix and aliquoted into the wells of the RT2 Profiler PCR Array. RT-PCR was performed on an iCycler. Gene expression was compared using Ct values and the results were calculated using ΔΔ Ct method with normalization to the average expression levels of the five common genes (ACTB, B2M, GAPDH, HPRT, and RPL13A).

[13] = system: PRDX2; experiment: Human oxidative stress RT2 Profiler PCR array in HGEPp cells: PRDX2; conditions: 100 μg/ml, 24 h, RT-PCR ΔΔCt
Protocol: as §2, §3, §4

[14] = system: GPX4; experiment: Human oxidative stress RT2 Profiler PCR array in HGEPp cells: GPX4; conditions: 100 μg/ml, 24 h, RT-PCR ΔΔCt
Protocol: as §2, §3, §4

[15] = system: HGEPp cells; experiment: ROS production in H2O2-induced oxidatively stressed HGEPp cells; conditions: HGEPp cells pretreated 24 hrs at 100 μg/mL, then 0.3 mM H2O2 for 4 h; positive control 139%

Row | Molecule | ALOX12 up regulation relative fold change [1] [fold] | UCP2 down regulation relative fold change [2] [fold] | ROS level (optical density, Normal = 100% baseline), as reported in PCT/IB2017/001312 [3] [%] | GPX1 up regulation relative fold change [4] [fold] | PTGS1 down regulation relative fold change [5] [fold] | GTF2i down regulation relative fold change [6] [fold] | NQO1 up regulation relative fold change [7] [fold] | GCLM up regulation relative fold change [8] [fold] | GCLC up regulation relative fold change [9] [fold] | SOD1 up regulation relative fold change [10] [fold] | GSTP1 up regulation relative fold change [11] [fold] | MPO up regulation relative fold change [12] [fold] | PRDX2 down regulation relative fold change [13] [fold] | GPX4 up regulation relative fold change [14] [fold] | ROS level (optical density, Normal = 100% baseline) [15] [%]
1 | Cc1c(-c2cnccn2)ssc1=S [ST-617-API, 4-methyl-5-(pyrazin-2-yl)-3H-1,2-dithiole-3-thione, reference compound] | 6.15 | 0.18 | 124 | 4.88 | 0.22 | 0.34 | 2.95 | 3.03 | 4.14 | 2.46 | 2.17 |  |  |  | 
2 | thiobenzoic acid complex of oltipraz [Example 11] | 6.39 | 0.15 |  | 4.82 | 0.22 | 0.29 | 4.09 | 3.08 | 4.46 | 4.96 | 3.07 | 3.44 | 0.27 | 2.94 | 116
3 | n-butyl chloride complex of oltipraz [Example 4] | 5.82 | 0.25 |  | 4.80 | 0.27 | 0.35 | 3.34 | 2.38 | 3.35 | 4.15 | 2.88 | 3.20 | 0.32 | 2.96 | 128
4 | Diethyl Thiophosphate Complex of Oltipraz [Example 8] | 6.41 | 0.14 |  | 4.81 | 0.23 | 0.29 | 3.92 | 3.02 | 4.39 | 4.86 | 3.08 | 3.47 | 0.28 | 3.02 | 115
